Like-named read-outs stand apart in the source and are kept apart here.
Experiments:
HDAC1 = target: T1, HDAC1 (Homo sapiens, UniProt Q13547); experiment: In vitro HDAC1 enzymatic activity inhibition (Lys-Ac-AMC substrate); format: biochemical
T1 construct: purchased BPS Bioscience
Summary of the method: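 Fluorogenic Lys-Ac-AMC deacetylation with trypsin development in modified Tris buffer pH 7.0; compound preincubated with enzyme 15 min at ambient temperature before substrate addition. Final HDAC1 6 nM, trypsin 0.05 μM, Ac-peptide 8 μM. IC50 from four-parameter fit of % inhibition versus concentration.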

PI3Kα = target: T2, PI3Kα (Homo sapiens, UniProt P42336); experiment: PI3Kα activity inhibition (Kinase-Glo); format: biochemical
T2 construct: purchased Invitrogen PV4788
Summary of the method: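 Kinase-Glo luminescence read-out of remaining ATP after PI3K reaction with PIP2 and ATP substrates in 50 mM HEPES pH 7.5, 3 mM MgCl2, 1 mM EGTA, 100 mM NaCl, 0.03% CHAPS, 2 mM DTT. Incubated at ambient temperature, 1 h for PI3Kα, 2 h for PI3Kδ. IC50 from four-parameter fit of % inhibition versus concentration.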

PI3Kβ = target: T3, PI3Kβ (Homo sapiens, UniProt P42338); experiment: PI3Kβ activity inhibition (ADP-Glo); format: biochemical; details: Table 1, graded
T3 construct: purchased Millipore 14-603-K
Protocol: (§1) Detecting the inhibition capability of the compound to PI3Kβ and PI3Kγ activities with ADP-Glo (purchased from Promege Company; Catalog No.: v9102/3). […] The reaction system also comprises substrates as PIP2 and ATP. The reaction buffer system comprises 50 mM HEPES, 3 mM MgCl2, 1 mM EGTA, 100 mM NaCl, 0.03% CHAPS and 2 mM DTT. The pH value of the reaction buffer is 7.5. […] Mixing the system evenly for incubation under ambient temperature for 1 h; getting a new 384 well plate and transferring 5 μL reaction liquid from the each well of original 384 well plate to the corresponding wells of the new 384 well plate; adding 5 μL ADP-Glo which has been preheated to ambient temperature into each new reaction well to terminate the reaction; oscillating it slowly in dark place for 40 min's incubation after it is mixed evenly; adding 10 μL testing liquid in each reaction well, oscillating it for 1 min to mix evenly and incubating it for 1 h, then measuring the fluorescence intensity with a microplate reader and analyzing the result data with the software GraphPad Prism.
(§2) Calculating the value of IC50 as per the formula: Y=background data+(top data−background data)/(1+10^((Log IC50−X)*rate of curve))
(§3) Where, Y refers to the inhibition ratio (%) and X refers to the compound concentration.

PI3Kδ = target: T4, PI3Kδ (Homo sapiens, UniProt O00329); experiment: PI3Kδ activity inhibition (Kinase-Glo); format: biochemical; details: Table 1, graded
T4 construct: purchased Millipore 14-604-K
Protocol: Detecting the inhibition capability of the compound to PI3Kα and PI3Kδ activities with Kinase-Glo (purchased from Promege Company; Catalog No.: V3771). […] The reaction system also comprises substrates as PIP2 (4, 5-diphosphoinositide, purchased from Life Technologies Company) and ATP (triphosadenine, purchased from Sigma Company). The reaction buffer system comprises 50 mM HEPES (4-hydroxyethylpiperazine ethane sulfonic acid), 3 mM MgCl2, 1 mM EGTA (ethylene glycol bis(2-amino ethylether)quadrol), 100 mM NaCl, 0.03% CHAPS (3-[3-(cholamidopropyl)dimethylamino]-1-propanesulfonic acid), 2 mM DTT (dithiothreitol). The pH value of the reaction buffer is 7.5. […] Mixing the system evenly for incubation under ambient temperature (for 1 h in PI3Kα test and for 2 h in PI3Kδ test). After incubation, adding 10 μL Kinase-Glo which has been preheated to ambient temperature into each reaction well to terminate the reaction; shaking it in dark place for 15 min after it is mixed evenly, then measuring the fluorescence intensity with a microplate reader and analyzing the result data with the software GraphPad Prism.
as §2, §3

PI3Kγ = target: T5, PI3Kγ (Homo sapiens, UniProt P48736); experiment: PI3Kγ activity inhibition (ADP-Glo); format: biochemical; details: Table 1, graded
T5 construct: purchased Invitrogen PR8641C
Protocol: as §1, §2, §3

mTOR = target: T6, mTOR (Homo sapiens, UniProt P42345); experiment: mTOR activity inhibition (ULight-4E-BP1 peptide); format: biochemical; details: Table 1, graded
T6 construct: purchased Millipore 14-770
Protocol: mTOR protein is purchased from Millipore Company (Catalog No.: 14-770). The reaction buffer system comprises 50 mM HEPES, 10 mM MgCl2, 1 mM EGTA, 3 mM […], 0.01% Tween-20 (purchased from Chengdu Kelong Chemical Regent Factory) and 2 mM DTT. The pH value of the reaction buffer is 7.5. Preparing 10 μL reaction system in corresponding wells of the 384 well plate, which contains the compositions as: the compound with designed concentration (or blank control), mTOR protein (with the concentration of 2.5 nM), ULight-4E-BP1 (containing the 37th and the 46th threonine residues, Thr37/46) peptide (purchased from PE Company, Catalog No.: TRF0128-M) and ATP substrates (ULight-4E-BP1 peptide, with the concentration of 50 nM and ATP, with the concentration of […]). Mixing it evenly for incubation under ambient temperature for 1 h; adding 10 μL testing liquid containing EDTA (ethylenediaminetetraacetic acid) and Eu-anti-phosphorylation-4E-BP1 (Thr37/46) antibody (purchased from PE Company, Catalog No.: TRF0216-M) into the reaction wells (after the testing liquid is added, the concentration of EDTA is 8 mM and the concentration of Eu-phosphorylation-4E-BP1 antibody is 2 nM); mixing it evenly and incubating it for 1 h under ambient temperature, then measuring the fluorescence intensity with a microplate reader and analyzing the result data with the software GraphPad Prism.
as §2, §3

[1] = system: MV4-11 cells (acute myeloid leukemia); experiment: Cell proliferation inhibition, MV4-11 (cck-8); format: cell-based; details: Homo sapiens
Protocol: (§4) The tumor cell lines are purchased from American Type Culture Collection (ATCC) and cultivated to the status of logarithmic growth as per the cultural method recommended by ATCC. The cells in logarithmic phase are spread on a 96 well plate as per 2000-3000/well; as for anchorage-dependent cells, the compound should be added in the test wells at certain concentration for incubation for 96 h after cell adherence. Determining cell proliferation activities with method MTT for tumor cells representing solid tumor model and with method cck-8 for tumor cells representing hematologic tumor model, and analyzing the result data with the software GraphPad Prism.
(§5) Calculating the value of IC50 as per the formula: Y=background data+(top data−background data)/(1+10^((Log IC50−X)*rate of curve)). Where, Y refers to the inhibition ratio (%) and X refers to the compound concentration.

[2] = system: hct116 cells (colon cancer); experiment: Cell proliferation inhibition, hct116 (MTT); format: cell-based; details: Homo sapiens, HCT-116
Protocol: as §4, §5

[3] = system: A2780s cells (ovarian cancer); experiment: Cell proliferation inhibition, A2780s (MTT); format: cell-based; details: Homo sapiens
Protocol: as §4, §5

[4] = system: human breast cancer MDA-MB-231 subcutaneous tumor; experiment: Subcutaneous tumor model, human breast cancer MDA-MB-231; details: 30 mg/kg, once per 7 days, intraperitoneal
Protocol: Cell MM1S is cultured in RPMI1640 medium (HyClone) which contains 10% fetal calf serum (Hohhot Caoyuan Lvye Bioengineering Material Co., Ltd.) and 100 U/mL penicillin and streptomycin (Beyotime).
3) Inoculation, grouping and treatment: collecting cells in logarithmic phase under aseptic conditions and counting; diluting the single cell suspension with the medium containing neither fetal calf serum nor antibiotics to 1×10^7-8 cell/mL for standby. Mixing the cell suspension; injecting 100 μL of cell suspension (5×10^6-2×10^7 cells) subcutaneously with a 1 mL injector on the right side of the back of animals. Weeding out the animals with oversized and undersized tumor when the tumor grows to an average volume of about 120 mm^3 and grouping the qualified animals for treatment and drug administration. Refer to Table 7 for each grouping model and drug administration frequency. Measuring the weight of each model per 2 days and measuring the length and width of the tumor with a vernier caliper; killing the tested animals through cervical dislocation and peeling off their tumors for weight measuring and photographing. Then calculating the tumor inhibition ratio (%) and evaluating the inhibition intensity to tumor with such tumor inhibition ratio.

[5] = system: human breast cancer MCF-7 subcutaneous tumor; experiment: Subcutaneous tumor model, human breast cancer MCF-7; details: 30 mg/kg, once per 7 days, intraperitoneal
[6] = Table 1, graded, read-out: HDAC1 IC50
[7] = read-out: inhibition value IC50 to the activity of HDAC1
[8] = Table 1, graded, read-out: PI3Kα IC50
[9] = read-out: inhibition value IC50 to the activity of PI3Kα
[10] = 96 h incubation, read-out: Proliferation IC50, Acute myeloid leukemia MV4-11
[11] = 96 h incubation, read-out: Proliferation IC50, Colon cancer hct116
[12] = 96 h incubation, read-out: Proliferation IC50, Ovarian cancer A2780s

T2 sequence (P42336 whole entry, species assumed): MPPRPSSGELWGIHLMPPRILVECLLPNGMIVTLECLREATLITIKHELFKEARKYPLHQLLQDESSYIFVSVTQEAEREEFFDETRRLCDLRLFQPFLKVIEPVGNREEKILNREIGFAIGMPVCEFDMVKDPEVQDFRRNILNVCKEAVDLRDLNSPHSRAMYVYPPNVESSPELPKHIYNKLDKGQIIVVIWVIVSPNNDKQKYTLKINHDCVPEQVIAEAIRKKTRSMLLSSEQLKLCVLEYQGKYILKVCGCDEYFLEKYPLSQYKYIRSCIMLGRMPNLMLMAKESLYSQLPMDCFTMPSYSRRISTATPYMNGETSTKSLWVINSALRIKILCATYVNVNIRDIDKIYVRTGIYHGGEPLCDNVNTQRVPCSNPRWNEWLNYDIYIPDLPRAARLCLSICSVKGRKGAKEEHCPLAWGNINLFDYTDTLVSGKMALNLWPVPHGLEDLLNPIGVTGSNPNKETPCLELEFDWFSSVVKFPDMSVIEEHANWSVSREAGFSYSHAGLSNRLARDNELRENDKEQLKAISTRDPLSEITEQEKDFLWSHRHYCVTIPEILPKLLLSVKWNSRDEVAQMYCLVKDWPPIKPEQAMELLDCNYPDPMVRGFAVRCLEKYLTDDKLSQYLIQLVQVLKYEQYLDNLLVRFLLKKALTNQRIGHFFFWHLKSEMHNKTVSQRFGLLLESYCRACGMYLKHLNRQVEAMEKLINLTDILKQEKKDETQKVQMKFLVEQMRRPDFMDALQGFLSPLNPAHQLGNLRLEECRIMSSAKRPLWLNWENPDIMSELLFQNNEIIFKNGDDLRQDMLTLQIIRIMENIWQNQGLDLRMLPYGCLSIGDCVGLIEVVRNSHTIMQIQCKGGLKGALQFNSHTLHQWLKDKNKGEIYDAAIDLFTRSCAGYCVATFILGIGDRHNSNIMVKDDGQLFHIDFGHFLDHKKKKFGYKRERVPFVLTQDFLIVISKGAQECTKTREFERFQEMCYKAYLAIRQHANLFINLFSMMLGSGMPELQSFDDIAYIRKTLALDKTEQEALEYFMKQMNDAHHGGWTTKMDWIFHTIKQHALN
T2 sequence (P27986 whole entry partner, species assumed): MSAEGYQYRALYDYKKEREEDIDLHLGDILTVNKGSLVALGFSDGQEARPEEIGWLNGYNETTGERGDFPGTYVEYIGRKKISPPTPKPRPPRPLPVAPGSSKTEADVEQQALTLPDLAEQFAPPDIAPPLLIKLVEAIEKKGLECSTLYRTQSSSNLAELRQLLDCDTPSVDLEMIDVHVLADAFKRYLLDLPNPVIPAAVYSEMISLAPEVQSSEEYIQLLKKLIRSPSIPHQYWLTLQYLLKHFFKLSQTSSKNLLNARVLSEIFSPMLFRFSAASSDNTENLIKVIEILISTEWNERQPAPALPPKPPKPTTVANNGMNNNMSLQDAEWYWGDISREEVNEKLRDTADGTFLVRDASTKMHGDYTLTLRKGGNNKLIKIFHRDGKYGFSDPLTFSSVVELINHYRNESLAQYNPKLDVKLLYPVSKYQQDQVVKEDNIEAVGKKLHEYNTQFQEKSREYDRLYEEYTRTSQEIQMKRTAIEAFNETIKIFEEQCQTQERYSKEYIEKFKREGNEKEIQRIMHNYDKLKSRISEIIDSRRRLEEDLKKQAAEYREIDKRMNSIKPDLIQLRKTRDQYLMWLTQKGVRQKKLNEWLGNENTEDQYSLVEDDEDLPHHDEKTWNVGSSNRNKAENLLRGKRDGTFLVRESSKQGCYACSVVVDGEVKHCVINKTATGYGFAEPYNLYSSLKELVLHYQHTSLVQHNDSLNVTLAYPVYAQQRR
T1 sequence (Q13547 whole entry, species assumed): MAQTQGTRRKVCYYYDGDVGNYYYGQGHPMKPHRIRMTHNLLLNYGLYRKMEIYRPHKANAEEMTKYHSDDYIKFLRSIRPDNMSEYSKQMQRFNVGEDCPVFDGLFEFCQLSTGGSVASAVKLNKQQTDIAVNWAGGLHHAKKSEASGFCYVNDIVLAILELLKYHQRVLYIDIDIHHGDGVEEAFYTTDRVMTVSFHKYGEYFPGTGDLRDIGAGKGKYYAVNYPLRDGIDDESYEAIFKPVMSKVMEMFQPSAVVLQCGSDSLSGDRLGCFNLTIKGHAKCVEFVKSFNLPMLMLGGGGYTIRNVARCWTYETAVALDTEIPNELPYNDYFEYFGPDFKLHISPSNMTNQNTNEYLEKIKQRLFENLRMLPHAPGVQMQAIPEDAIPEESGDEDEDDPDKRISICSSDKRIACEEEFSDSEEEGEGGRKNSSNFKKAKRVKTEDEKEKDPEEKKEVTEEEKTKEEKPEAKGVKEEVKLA
T6 sequence (P42345 1362-2549 limits assumed): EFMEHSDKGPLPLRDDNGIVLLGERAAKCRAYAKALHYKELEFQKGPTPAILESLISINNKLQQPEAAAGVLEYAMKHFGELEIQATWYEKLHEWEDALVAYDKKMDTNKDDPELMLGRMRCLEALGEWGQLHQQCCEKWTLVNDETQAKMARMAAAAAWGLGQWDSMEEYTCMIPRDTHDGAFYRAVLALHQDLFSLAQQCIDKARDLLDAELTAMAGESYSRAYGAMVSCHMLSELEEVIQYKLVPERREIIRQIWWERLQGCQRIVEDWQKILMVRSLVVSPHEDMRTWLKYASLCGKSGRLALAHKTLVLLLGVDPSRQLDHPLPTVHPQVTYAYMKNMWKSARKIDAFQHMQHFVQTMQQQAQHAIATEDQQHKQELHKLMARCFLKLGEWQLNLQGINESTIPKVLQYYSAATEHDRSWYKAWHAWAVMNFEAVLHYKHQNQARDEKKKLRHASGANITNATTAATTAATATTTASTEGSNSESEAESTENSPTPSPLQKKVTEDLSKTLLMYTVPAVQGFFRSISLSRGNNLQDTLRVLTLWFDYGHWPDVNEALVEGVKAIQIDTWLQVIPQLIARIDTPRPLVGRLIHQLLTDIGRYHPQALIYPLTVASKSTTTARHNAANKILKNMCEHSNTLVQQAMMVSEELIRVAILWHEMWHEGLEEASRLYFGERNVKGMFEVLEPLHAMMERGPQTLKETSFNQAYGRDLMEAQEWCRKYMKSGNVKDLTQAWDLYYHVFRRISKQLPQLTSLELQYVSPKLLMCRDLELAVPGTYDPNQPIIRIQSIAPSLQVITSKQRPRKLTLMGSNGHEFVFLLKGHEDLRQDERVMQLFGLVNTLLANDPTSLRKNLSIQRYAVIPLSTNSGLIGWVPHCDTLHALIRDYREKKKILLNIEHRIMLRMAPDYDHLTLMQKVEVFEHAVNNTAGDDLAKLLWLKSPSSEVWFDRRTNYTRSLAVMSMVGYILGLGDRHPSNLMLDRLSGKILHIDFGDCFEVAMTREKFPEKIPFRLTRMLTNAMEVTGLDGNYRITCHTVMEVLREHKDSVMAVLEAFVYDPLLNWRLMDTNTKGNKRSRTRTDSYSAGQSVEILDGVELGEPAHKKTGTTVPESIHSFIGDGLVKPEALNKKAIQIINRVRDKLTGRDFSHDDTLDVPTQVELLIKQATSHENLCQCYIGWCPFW
T5 sequence (P48736 whole entry): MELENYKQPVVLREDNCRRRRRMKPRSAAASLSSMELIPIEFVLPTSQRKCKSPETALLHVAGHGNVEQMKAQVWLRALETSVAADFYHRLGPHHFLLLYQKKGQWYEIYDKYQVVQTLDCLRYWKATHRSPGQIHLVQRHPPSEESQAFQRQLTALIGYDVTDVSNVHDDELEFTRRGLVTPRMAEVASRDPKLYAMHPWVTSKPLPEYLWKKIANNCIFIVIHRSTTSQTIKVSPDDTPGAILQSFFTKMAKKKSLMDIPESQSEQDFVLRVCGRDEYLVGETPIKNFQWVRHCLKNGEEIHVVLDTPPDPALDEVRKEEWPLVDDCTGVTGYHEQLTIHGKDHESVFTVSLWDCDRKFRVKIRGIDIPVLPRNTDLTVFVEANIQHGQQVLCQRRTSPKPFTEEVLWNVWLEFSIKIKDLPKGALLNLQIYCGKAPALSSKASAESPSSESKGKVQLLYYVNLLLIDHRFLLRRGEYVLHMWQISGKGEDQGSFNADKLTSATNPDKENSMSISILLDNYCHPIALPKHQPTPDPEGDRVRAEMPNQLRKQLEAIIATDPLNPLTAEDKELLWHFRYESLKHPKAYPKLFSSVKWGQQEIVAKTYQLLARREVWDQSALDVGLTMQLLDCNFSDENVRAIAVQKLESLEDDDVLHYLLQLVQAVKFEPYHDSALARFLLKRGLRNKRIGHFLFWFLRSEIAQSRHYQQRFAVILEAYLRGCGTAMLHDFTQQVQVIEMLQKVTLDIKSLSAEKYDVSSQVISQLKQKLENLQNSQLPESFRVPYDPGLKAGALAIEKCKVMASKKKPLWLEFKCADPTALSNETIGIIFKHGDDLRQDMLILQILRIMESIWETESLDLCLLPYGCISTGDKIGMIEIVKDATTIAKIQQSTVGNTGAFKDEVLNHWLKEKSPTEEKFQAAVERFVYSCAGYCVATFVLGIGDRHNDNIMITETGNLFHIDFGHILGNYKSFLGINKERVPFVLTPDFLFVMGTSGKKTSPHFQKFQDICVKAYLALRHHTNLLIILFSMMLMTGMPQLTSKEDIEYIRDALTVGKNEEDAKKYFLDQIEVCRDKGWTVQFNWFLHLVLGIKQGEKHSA

| Compound | IC50 (HDAC1; [6]) [nM] | IC50 (HDAC1; [7]) [nM] | IC50 (PI3Kα; [8]) [nM] | IC50 (PI3Kα; [9]) [nM] | IC50 (PI3Kβ) [nM] | IC50 (PI3Kδ) [nM] | IC50 (PI3Kγ) [nM] | IC50 (mTOR) [nM] | IC50 [1, 10] [nM] | IC50 [2, 11] [nM] | IC50 [3, 12] [nM] | IC50 ([1]; read-out: IC50 to proliferation of MV4-11 cells) [nM] | IC50 ([2]; read-out: IC50 to proliferation of hct116 cells) [nM] | IC50 ([3]; read-out: IC50 to proliferation of A2780s cells) [nM] | Death [4] | Inhibitory rate (%) [4] [%] | Death [5] | Inhibitory rate (%) [5] [%] |
| --- | --- | --- | --- | --- | --- | --- | --- | --- | --- | --- | --- | --- | --- | --- | --- | --- | --- | --- |
| CCN(Cc1nc2c(N3CCOCC3)nc(-c3ccc(OC)nc3)nc2n1C)c1ncc(C(=O)NO)cn1 [CLJ-5, N-hydroxy-2-(((2-(6-methoxyl-3-pyridyl)-9-methyl-6-morpholine-9H-purine-8-yl))methyl(ethyl)amino)pyrimidine-5-formamide] | 100 to 1000 | < 100 | < 100 | < 100 | 100 to 1000 | 100 to 1000 | 100 to 1000 | 100 to 1000 | 100 to 1000 | 100 to 1000 | 100 to 1000 |  |  |  |  |  |  |  |
| CCCN(Cc1nc2c(N3CCOCC3)nc(-c3ccc(OC)nc3)nc2n1C)c1ncc(C(=O)NO)cn1 [CLJ-6, N-hydroxy-2-(((2-(6-methoxyl-3-pyridyl)-9-methyl-6-morpholine-9H-purine-8-yl))methyl(propyl)amino)pyrimidine-5-formamide] | 100 to 1000 |  | > 10000 |  | > 10000 | > 10000 | > 10000 | > 10000 | > 1000 | > 1000 | > 1000 |  |  |  |  |  |  |  |
| CNc1ncc(-c2nc(N3CCOCC3)c3nc(CN(C)c4ncc(C(=O)NO)cn4)n(C)c3n2)cn1 [CLJ-12, 2-(((2-(4-aminemethylpyrimidine)-9-methyl-6-morpholine-9H-purine-8-yl))methyl(methyl)amino)-N-hydroxyl pyrimidine-5-formamide] | < 100 |  | < 100 | < 100 | 100 to 1000 | 100 to 1000 | 100 to 1000 | 100 to 1000 | 0.1 to 10 | 0.1 to 10 | 0.1 to 10 | 0.1 to 10 | 0.1 to 10 | 0.1 to 10 |  |  |  |  |
| CC(C)=CCN(CC=C(C)C)c1ccc(-c2nc(N3CCOCC3)c3nc(CN(C)c4ncc(C(=O)NO)cn4)n(C)c3n2)cc1 [CLJ-49] | < 100 |  | > 10000 |  |  |  |  |  | 10 to 100 | 100 to 1000 | 10 to 100 |  |  |  |  |  |  |  |
| CN(Cc1nc2c(N3CCOCC3)nc(-c3ccc(Cl)c(C(F)(F)F)c3)nc2n1C)c1ncc(C(=O)NO)cn1 [CLJ-54, 2-(((2-(-4-chlorine-3-trifluoromethylphenyl)-9-methyl-6-morpholine-9H-purine-8-yl))methyl(methyl)amino)-N-hydroxyl pyrimidine-5-formamide] | < 100 |  | > 10000 |  |  |  |  |  | 100 to 1000 | 100 to 1000 | 100 to 1000 |  |  |  |  |  |  |  |
| CN(Cc1nc2c(N3CCOCC3)nc(-c3ccc(C(F)(F)F)cc3)nc2n1C)c1ncc(C(=O)NO)cn1 [CLJ-55] | < 100 |  | > 10000 |  |  |  |  |  | 0.1 to 10 | 10 to 100 | 10 to 100 |  |  |  |  |  |  |  |
| CN(Cc1nc2c(N3CCOCC3)nc(-c3cc(C(F)(F)F)cc(C(F)(F)F)c3)nc2n1C)c1ncc(C(=O)NO)cn1 [CLJ-56] | < 100 |  | > 10000 |  |  |  |  |  | 10 to 100 | 100 to 1000 | 100 to 1000 |  |  |  |  |  |  |  |
| CN(Cc1nc2c(N3CCOCC3)nc(-c3ccc(S(C)(=O)=O)cc3)nc2n1C)c1ncc(C(=O)NO)cn1 [CLJ-57, 2-(((2-(4-methylsulphonylphenyl)-9-methyl-6-morpholine-9H-purine-8-yl))methyl(methyl)amino)-N-hydroxyl pyrimidine-5-formamide] | < 1 | < 1 | > 10000 |  |  |  |  |  | 0.1 to 10 | 10 to 100 | 0.1 to 10 |  |  |  |  |  |  |  |
| Cc1ccc(-c2nc(N3CCOCC3)c3nc(CN(C)c4ncc(C(=O)NO)cn4)n(C)c3n2)cc1 [CLJ-60, 2-(((2-(p-methylbenzene)-9-methyl-6-morpholine-9H-purine-8-yl))methyl(methyl)amino)-N-hydroxyl pyrimidine-5-formamide] | < 100 |  | > 10000 |  |  |  |  |  | 0.1 to 10 | 10 to 100 | 0.1 to 10 |  |  |  |  |  |  |  |
| CN(Cc1nc2c(N3CCOCC3)nc(Cl)nc2n1C)c1ncc(C(=O)NO)cn1 [CLJ-68] | < 100 |  | > 10000 |  |  |  |  |  | 10 to 100 | 10 to 100 | 10 to 100 |  |  |  |  |  |  |  |
| CC(=O)O[C@H]1C(=O)[C@@]2(C)[C@H]([C@H](OC(=O)c3ccccc3)[C@]3(O)C[C@H](OC(=O)[C@H](O)[C@@H](NC(=O)c4ccccc4)c4ccccc4)C(C)=C1C3(C)C)[C@]1(OC(C)=O)CO[C@@H]1C[C@@H]2O [Paclitaxel] |  |  |  |  |  |  |  |  |  |  |  |  |  |  | 0/6 | 59.19 | 0/6 | 77.73 |
